Data set [1] has as its system Staphylococcus epidermidis. Briefly: Antibacterial activity against Staphylococcus epidermidis 845/19. Type of data set: functional.
Data set [2] relates to Escherichia coli. Briefly: Antibacterial activity against Escherichia coli ATCC 25922. Type of data set: functional.
Data set [3] relates to Staphylococcus epidermidis. Briefly: Antibacterial activity against Staphylococcus epidermidis 848/19. Type of data set: functional.
In data set [4] the test system is Staphylococcus aureus. The experiment in a line: Antibacterial activity against Staphylococcus aureus ATCC 25923. The class given is functional.
The nature of data set [5]: Selectivity ratio of GI50 for cytotoxicity against human HL-60 cells to GI50 for antitrypanosomal activity against bloodstream form of Trypanosoma brucei clone 427-221a. The class given is toxicity, cell-based. The conditions noted are these: read-out: RatioGI50.
Data set [6] relates to Staphylococcus aureus. The experiment in a line: Antibacterial activity against Staphylococcus aureus ATCC 6538. Type of data set: functional.
The next data set deals with HL-60. The experiment in a line: (§1) Cytotoxicity against human HL-60 cells assessed as reduction in cell viability measured after 24 hrs by resazurin dye based assay. Type of data set: toxicity. The conditions noted are these: hl-60, 24 h. In general terms: Alamar Blue is a resazurin reagent that responds to reducing activity.
Data set [7] is described as follows: as §1. The class given is toxicity. The following applies: HL-60 cells.
For data set [8], the system named is Escherichia coli. Briefly: Antibacterial activity against Escherichia coli NCTC 10538. The class given is functional.
Data set [9] has as its system Staphylococcus epidermidis. Briefly: Antibacterial activity against Staphylococcus epidermidis 840/19. Type of data set: functional.
In data set [10] the test system is Staphylococcus aureus. Briefly: Antibacterial activity against Staphylococcus aureus NCTC 4163. Type of data set: functional.
Data set [11] relates to Pseudomonas aeruginosa. The experiment in a line: Antibacterial activity against Pseudomonas aeruginosa […]. Type of data set: functional.
In data set [12] the test system is Staphylococcus epidermidis. Briefly: Antibacterial activity against Staphylococcus epidermidis ATCC 12228. Type of data set: functional.
Data set [13] deals with Staphylococcus epidermidis. Briefly: Antibacterial activity against Staphylococcus epidermidis 829/19. Type of data set: functional.
For data set [14], the system named is Staphylococcus aureus. Briefly: Antibacterial activity against Staphylococcus aureus ATCC 29213. The class given is functional.
The nature of data set [15]: Selectivity ratio of MIC for cytotoxicity against human HL-60 cells to MIC for antitrypanosomal activity against bloodstream form of Trypanosoma brucei clone 427-221a. The class given is toxicity, cell-based.
Data set [16] deals with Staphylococcus epidermidis. Briefly: Antibacterial activity against Staphylococcus epidermidis 830/19. The class given is functional.
The test system of data set [17] is Staphylococcus epidermidis. Briefly: Antibacterial activity against Staphylococcus epidermidis ATCC 35984. The class given is functional.
For data set [18], the system named is Pseudomonas aeruginosa. The experiment in a line: Antibacterial activity against Pseudomonas aeruginosa ATCC 15442. Type of data set: functional.
The test system of data set [19] is Staphylococcus epidermidis. The experiment in a line: Antibacterial activity against Staphylococcus epidermidis 851/19. The class given is functional.
The test system of data set [20] is Staphylococcus epidermidis. Briefly: Antibacterial activity against Staphylococcus epidermidis 834/19. The class given is functional.
Another data set concerns Trypanosoma brucei. The experiment in a line: Antitrypanosomal activity against bloodstream form of Trypanosoma brucei clone 427-221a measured after 24 hrs by resazurin dye based assay. The class given is functional.
Data set [21] relates to Staphylococcus epidermidis. The experiment in a line: Antibacterial activity against Staphylococcus epidermidis 825/19. Type of data set: functional.

≈ marks a conversion by molar mass, not a printed value. Some results are limits rather than exact numbers.

The results in this text go back to ChEMBL document CHEMBL5131424, “Synthesis and evaluation of antibacterial and trypanocidal activity of derivatives of monensin A” (Bioorg Med Chem Lett, 2022).

With `CO[C@H]([C@H](C)[C@H]1O[C@@]2(CC[C@@](C)([C@H]3CC[C@@](CO)([C@@H]4O[C@@H]([C@H]5O[C@@](O)(COC(C)=O)[C@H](C)C[C@@H]5C)C[C@@H]4C)O3)O2)C[C@H](O)[C@H]1C)[C@H](C)C(=O)O`, the MIC in data set [1] was 2 µg/mL (≈ 2.8 µM); with Escherichia coli [2] it was above 256 µg/mL; in data set [3], 1 µg/mL (≈ 1.4 µM); against Staphylococcus aureus [4], 1 µg/mL (≈ 1.4 µM); in the data set on Staphylococcus aureus [6], 2 µg/mL (≈ 2.8 µM); in the data set on HL-60 it was 10 µM (≈ 7.15 µg/mL). Besides, the MIC was above 256 µg/mL in the data set with Escherichia coli [8]; 2 µg/mL (≈ 2.8 µM) in data set [9]; 2 µg/mL (≈ 2.8 µM) in the data set on Staphylococcus aureus [10]; above 256 µg/mL against Pseudomonas aeruginosa [11]; 1 µg/mL (≈ 1.4 µM) in data set [12]; 1 µg/mL (≈ 1.4 µM) in data set [13]. Also, the MIC against Staphylococcus aureus [14] is 2 µg/mL (≈ 2.8 µM); in data set [16] it was 1 µg/mL (≈ 1.4 µM); in data set [17] it was 2 µg/mL (≈ 2.8 µM); against Pseudomonas aeruginosa [18], above 256 µg/mL; in data set [19], 2 µg/mL (≈ 2.8 µM); in data set [20], 1 µg/mL (≈ 1.4 µM). For the same compound, the MIC against Trypanosoma brucei was 1 µM (≈ 0.715 µg/mL); in [21] it was 0.25 µg/mL (≈ 0.35 µM). The selectivity ratio in data set [5] is 19; in data set [15] it was 10. In addition, in data set [7], the concentration for 50% growth inhibition (GI50) at 24 h was 5.51 µM. The compound further displayed a concentration for 50% growth inhibition (GI50) in the data set on Trypanosoma brucei of 0.29 µM.
Consider `CO[C@H]([C@H](C)[C@H]1O[C@@]2(CC[C@@](C)([C@H]3CC[C@@](CO)([C@@H]4O[C@@H]([C@H]5O[C@@](O)(COC(=O)NC(=O)CCl)[C@H](C)C[C@@H]5C)C[C@@H]4C)O3)O2)C[C@H](O)[C@H]1C)[C@H](C)C(=O)O`, for which the MIC in data set [1] is 32 µg/mL (≈ 40.4 µM); against Escherichia coli [2], above 256 µg/mL; in [3], 16 µg/mL (≈ 20.2 µM); in the data set with Staphylococcus aureus [4] it was 1 µg/mL (≈ 1.26 µM); with Staphylococcus aureus [6], 2 µg/mL (≈ 2.52 µM); in the data set on HL-60 it was 10 µM (≈ 7.92 µg/mL). Further, the MIC is above 256 µg/mL against Escherichia coli [8]; 16 µg/mL (≈ 20.2 µM) in data set [9]; 2 µg/mL (≈ 2.52 µM) in the data set with Staphylococcus aureus [10]; above 256 µg/mL against Pseudomonas aeruginosa [11]; 2 µg/mL (≈ 2.52 µM) in data set [12]; 16 µg/mL (≈ 20.2 µM) in data set [13]. Moreover, the MIC in the data set on Staphylococcus aureus [14] is 2 µg/mL (≈ 2.52 µM); in data set [16], 16 µg/mL (≈ 20.2 µM); in data set [17], 2 µg/mL (≈ 2.52 µM); in the data set with Pseudomonas aeruginosa [18], above 256 µg/mL; in data set [19] it was 16 µg/mL (≈ 20.2 µM); in data set [20], 8 µg/mL (≈ 10.1 µM). In addition, the MIC against Trypanosoma brucei amounted to 0.1 µM (≈ 0.0792 µg/mL); in [21], 8 µg/mL (≈ 10.1 µM). The selectivity ratio is 746 in data set [5] and 100 in data set [15]. Besides, the GI50 at 24 h in data set [7] is 3.51 µM. The same compound displayed a GI50 in the data set on Trypanosoma brucei of 0.0047 µM.
Turning to `CO[C@H]([C@H](C)[C@H]1O[C@@]2(CC[C@@](C)([C@H]3CC[C@@](CO)([C@@H]4O[C@@H]([C@H]5O[C@@](O)(COC(=O)c6ccccc6)[C@H](C)C[C@@H]5C)C[C@@H]4C)O3)O2)C[C@H](O)[C@H]1C)[C@H](C)C(=O)O`, the MIC in data set [1] was 2 µg/mL (≈ 2.57 µM); against Escherichia coli [2], above 256 µg/mL; in [3], 2 µg/mL (≈ 2.57 µM); against Staphylococcus aureus [4] it was 1 µg/mL (≈ 1.29 µM); in the data set on Staphylococcus aureus [6] it was 1 µg/mL (≈ 1.29 µM); with HL-60, 100 µM (≈ 77.7 µg/mL). The MIC against Escherichia coli [8] was above 256 µg/mL; in [9], 2 µg/mL (≈ 2.57 µM); in the data set on Staphylococcus aureus [10], 1 µg/mL (≈ 1.29 µM); in the data set with Pseudomonas aeruginosa [11], above 256 µg/mL; in data set [12] it was 1 µg/mL (≈ 1.29 µM); in data set [13], 2 µg/mL (≈ 2.57 µM). The MIC was 1 µg/mL (≈ 1.29 µM) in the data set on Staphylococcus aureus [14]; 1 µg/mL (≈ 1.29 µM) in data set [16]; 1 µg/mL (≈ 1.29 µM) in [17]; above 256 µg/mL with Pseudomonas aeruginosa [18]; 1 µg/mL (≈ 1.29 µM) in [19]; 1 µg/mL (≈ 1.29 µM) in [20]. Also, the results for the MIC (against Trypanosoma brucei; in data set [21]) were 10 µM (≈ 7.77 µg/mL) and 0.5 µg/mL (≈ 0.644 µM), respectively. In addition, the selectivity ratio was 7 in data set [5] and 10 in data set [15]. Also, in [7], the GI50 at 24 h is 18.3 µM. Also, the GI50 in the data set with Trypanosoma brucei worked out at 2.62 µM.

A word on the GI50: it is the concentration giving 50% growth inhibition.
